# Laboratory results reported in US6869965B2, “Antimicrobial quinolone derivatives and use of the same to treat bacterial infections” (Pharmacia & Upjohn Company, priority 2000, dated 2005).
# Columns and labels:
# Type in all cases: cell-based
# S. aureus UC9218 = assay: Antibacterial activity, MIC; conditions: strain UC9218
# E. faecalis UC9217 = assay: Antibacterial activity, MIC; conditions: strain UC9217
# S. pneumoniae UC9912 = assay: Antibacterial activity, MIC; conditions: strain UC9912
# E. coli UC6674 = assay: Antibacterial activity, MIC; conditions: strain UC6674
# M. catarrhalis UC30607 = assay: Antibacterial activity, MIC; conditions: strain UC30607
# [1] = tested on: E. faecalis, S. aureus, S. pneumoniae, H. influenzae, M. catarrhalis, E. coli; assay: Antibacterial activity, overall statement on Table 1; conditions: summary in words of Table 1
# H. influenzae UC30063 = assay: Antibacterial activity, MIC; conditions: strain UC30063
SMILES,MIC S. aureus UC9218 (S. aureus UC9218),MIC E. faecalis UC9217 (E. faecalis UC9217),MIC S. pneumoniae UC9912 (S. pneumoniae UC9912),MIC E. coli UC6674 (E. coli UC6674),MIC M. catarrhalis UC30607 (M. catarrhalis UC30607),antibacterial activity [1],MIC H. influenzae UC30063 (H. influenzae UC30063)
"CC(=O)NC[C@H]1CN(c2ccc(-c3cc4c(cc3F)c(=O)c(C(=O)O)cn4C3CC3)c(F)c2)C(=O)O1 [Example 3, 7-(4{(5S)-5-[(Acetylamino)methyl]2-oxo-1,3-oxazolidin-3-yl}-2-fluorophenyl)-1-cyclopropyl-6-fluoro-4-oxo-1,4-dihydro-3-quinolinecarboxylic acid]",2 :g/mL,8 :g/mL,4 :g/mL,4 :g/mL,4 :g/mL,potent antibacterial activity,0.5 :g/mL
CC(=O)NC[C@H]1CN(c2ccc(N3CCN(c4cc5c(cc4F)c(=O)c(C(=O)O)cn5C4CC4)CC3)c(F)c2)C(=O)O1 [Example 1],0.5 :g/mL,0.25 :g/mL,0.125 :g/mL,16 :g/mL,1 :g/mL,,8 :g/mL
CC(=O)NC[C@H]1CN(c2ccc(N3CCN(c4c(F)cc5c(=O)c(C(=O)O)cn6c5c4OCC6C)CC3)c(F)c2)C(=O)O1 (stereo partly shown) [Example 2],1 :g/mL,0.5 :g/mL,0.25 :g/mL,16 :g/mL,2 :g/mL,,4 :g/mL
